Where “and” joins values, the source holds several entries; their conditions need not be identical. Identical values can stand only once. Like-named read-outs stand apart in the source and are kept apart here.
How the values were obtained:
CYP1A2 = assay: CYP gene expression in human hepatocytes; format: in vitro ADME
CYP3A4 [1] = test system: CYP3A4
CYP2B6 [2] = assay: CYP gene expression in human hepatocytes; format: in vitro ADME
[3] = clinical observation with rifampin; cited from earlier work
CYP2B6 [4] = settings: total dolutegravir up to and including 40 μM, 48 h; cited from earlier work
[5] = dolutegravir protein binding in Williams' Medium E by rapid equilibrium dialysis; format: in vitro ADME
CYP3A4 [6] = assay: in vitro; settings: human, fold induction of CYP3A4 expression
[7] = in vivo; cited from earlier work
CYP3A4 [8] = settings: total dolutegravir up to and including 40 μM, 48 h; cited from earlier work
CYP2C9 = settings: read-out: mean observed Km of progesterone metabolism by CYP2C9; liver microsome studies; cited from earlier work
CYP3A4 [9] = settings: read-out: mean observed Km of progesterone metabolism by CYP3A4; liver microsome studies; cited from earlier work
CYP2C19 = settings: read-out: mean observed Km of progesterone metabolism by CYP2C19; liver microsome studies; cited from earlier work
rhCYP3A5 = rhCYP3A5 (Homo sapiens, UniProt P20815); assay: levonorgestrel clearance by recombinant human CYP; format: in vitro ADME
rhCYP3A5, sequence (P20815 whole entry): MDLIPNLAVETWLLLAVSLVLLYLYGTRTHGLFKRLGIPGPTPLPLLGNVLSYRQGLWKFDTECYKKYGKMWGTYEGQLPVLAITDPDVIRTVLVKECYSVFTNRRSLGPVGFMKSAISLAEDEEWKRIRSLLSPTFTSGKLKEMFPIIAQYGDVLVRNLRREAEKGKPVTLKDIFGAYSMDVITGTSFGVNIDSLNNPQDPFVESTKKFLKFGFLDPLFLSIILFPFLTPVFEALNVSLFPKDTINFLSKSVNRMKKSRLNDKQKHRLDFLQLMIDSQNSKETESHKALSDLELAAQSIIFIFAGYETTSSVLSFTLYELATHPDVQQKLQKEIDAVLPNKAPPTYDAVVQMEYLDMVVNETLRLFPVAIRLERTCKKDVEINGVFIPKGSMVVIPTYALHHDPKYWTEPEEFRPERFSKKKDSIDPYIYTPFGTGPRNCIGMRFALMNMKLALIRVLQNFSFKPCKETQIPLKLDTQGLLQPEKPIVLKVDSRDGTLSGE

rhCYP3A4 = rhCYP3A4 (Homo sapiens, UniProt P08684); assay: levonorgestrel clearance by recombinant human CYP; format: in vitro ADME
rhCYP3A4, sequence (P08684 whole entry): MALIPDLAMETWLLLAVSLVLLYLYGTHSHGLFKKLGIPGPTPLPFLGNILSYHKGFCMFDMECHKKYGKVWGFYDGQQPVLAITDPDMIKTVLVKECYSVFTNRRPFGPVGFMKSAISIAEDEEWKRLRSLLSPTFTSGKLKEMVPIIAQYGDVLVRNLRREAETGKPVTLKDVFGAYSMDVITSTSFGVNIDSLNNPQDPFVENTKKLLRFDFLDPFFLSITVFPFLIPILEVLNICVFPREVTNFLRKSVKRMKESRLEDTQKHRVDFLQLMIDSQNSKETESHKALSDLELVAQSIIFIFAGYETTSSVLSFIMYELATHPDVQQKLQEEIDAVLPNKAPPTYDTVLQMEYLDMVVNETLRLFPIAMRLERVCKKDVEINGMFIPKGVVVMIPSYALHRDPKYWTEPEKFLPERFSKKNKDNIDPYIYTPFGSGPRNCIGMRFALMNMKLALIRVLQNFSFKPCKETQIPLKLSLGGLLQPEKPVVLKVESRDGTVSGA

[10] = Jadelle subdermal implants, cited from earlier work
[11] = cited from earlier work
rhCYP1A2 = biological target: T1, rhCYP1A2 (Homo sapiens, UniProt P05177); assay: levonorgestrel clearance by recombinant human CYP; format: in vitro ADME
T1 sequence (P05177 1-516): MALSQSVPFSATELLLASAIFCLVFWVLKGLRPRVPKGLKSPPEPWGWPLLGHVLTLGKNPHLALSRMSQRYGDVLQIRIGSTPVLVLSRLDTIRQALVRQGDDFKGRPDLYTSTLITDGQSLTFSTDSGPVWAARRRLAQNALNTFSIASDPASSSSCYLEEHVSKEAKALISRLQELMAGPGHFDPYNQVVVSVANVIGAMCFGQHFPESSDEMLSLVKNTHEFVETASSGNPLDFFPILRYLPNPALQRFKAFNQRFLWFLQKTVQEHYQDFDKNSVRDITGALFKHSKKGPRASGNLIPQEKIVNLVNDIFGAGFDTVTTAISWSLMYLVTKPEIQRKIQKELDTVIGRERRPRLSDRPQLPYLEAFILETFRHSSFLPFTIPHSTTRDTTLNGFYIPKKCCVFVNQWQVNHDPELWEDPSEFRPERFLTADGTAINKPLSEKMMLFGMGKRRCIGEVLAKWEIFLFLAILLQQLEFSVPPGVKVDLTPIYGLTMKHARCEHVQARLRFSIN

rhCYP2C9 = rhCYP2C9 (Homo sapiens, UniProt P11712); assay: levonorgestrel clearance by recombinant human CYP; format: in vitro ADME
rhCYP2C9, sequence (P11712 whole entry): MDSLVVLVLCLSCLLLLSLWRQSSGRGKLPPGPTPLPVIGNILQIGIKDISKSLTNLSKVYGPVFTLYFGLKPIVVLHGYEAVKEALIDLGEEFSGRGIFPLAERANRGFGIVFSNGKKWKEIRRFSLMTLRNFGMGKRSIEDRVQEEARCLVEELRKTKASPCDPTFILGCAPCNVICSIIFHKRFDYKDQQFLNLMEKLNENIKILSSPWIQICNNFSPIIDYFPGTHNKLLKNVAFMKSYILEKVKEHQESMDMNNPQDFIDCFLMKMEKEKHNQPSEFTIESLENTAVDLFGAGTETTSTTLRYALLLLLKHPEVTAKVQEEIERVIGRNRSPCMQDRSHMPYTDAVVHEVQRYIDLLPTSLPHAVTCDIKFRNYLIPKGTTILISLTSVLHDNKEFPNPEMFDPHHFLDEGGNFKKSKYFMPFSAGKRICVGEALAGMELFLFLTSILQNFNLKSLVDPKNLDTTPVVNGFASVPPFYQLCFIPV

[12] = levonorgestrel CLint.app. by cryopreserved primary human hepatocytes; format: in vitro ADME; settings: cryopreserved primary human hepatocytes (plated)
[13] = administered orally; cited from earlier work
rhCYP2B6 = biological target: T2, rhCYP2B6 (Homo sapiens, UniProt P20813); assay: levonorgestrel clearance by recombinant human CYP; format: in vitro ADME
T2 sequence (P20813 1-491): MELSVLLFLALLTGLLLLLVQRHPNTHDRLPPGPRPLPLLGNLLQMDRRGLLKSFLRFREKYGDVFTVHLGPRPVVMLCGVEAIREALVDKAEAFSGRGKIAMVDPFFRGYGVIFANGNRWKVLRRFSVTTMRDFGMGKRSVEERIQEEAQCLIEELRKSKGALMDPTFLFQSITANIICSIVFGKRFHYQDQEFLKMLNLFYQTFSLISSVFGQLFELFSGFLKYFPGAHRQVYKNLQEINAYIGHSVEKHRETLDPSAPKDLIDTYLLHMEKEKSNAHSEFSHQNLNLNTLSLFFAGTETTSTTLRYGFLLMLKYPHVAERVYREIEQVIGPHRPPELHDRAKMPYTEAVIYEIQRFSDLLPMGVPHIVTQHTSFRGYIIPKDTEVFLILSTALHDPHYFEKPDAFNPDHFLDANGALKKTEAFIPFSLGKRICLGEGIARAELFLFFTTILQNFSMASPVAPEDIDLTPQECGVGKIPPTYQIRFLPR

rhCYP2C19 = rhCYP2C19 (Homo sapiens, UniProt P33261); assay: levonorgestrel clearance by recombinant human CYP; format: in vitro ADME
rhCYP2C19, sequence (P33261 whole entry): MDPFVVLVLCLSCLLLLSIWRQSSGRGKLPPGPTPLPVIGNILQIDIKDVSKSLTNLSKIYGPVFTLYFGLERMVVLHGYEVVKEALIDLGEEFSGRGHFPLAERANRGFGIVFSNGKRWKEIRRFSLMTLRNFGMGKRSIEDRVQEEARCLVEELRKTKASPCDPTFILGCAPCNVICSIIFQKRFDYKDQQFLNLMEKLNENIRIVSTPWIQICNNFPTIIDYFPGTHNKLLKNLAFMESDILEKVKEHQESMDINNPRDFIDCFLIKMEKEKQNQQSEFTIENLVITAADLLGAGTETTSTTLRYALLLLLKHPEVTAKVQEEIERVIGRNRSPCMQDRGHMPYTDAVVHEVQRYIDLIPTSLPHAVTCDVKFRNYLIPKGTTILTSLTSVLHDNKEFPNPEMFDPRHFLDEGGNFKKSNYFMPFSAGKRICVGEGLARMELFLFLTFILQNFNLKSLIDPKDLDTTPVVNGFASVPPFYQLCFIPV

hepatic CYPs = assay: total apparent and systemic plasma clearance scaled from rhCYP data; format: in vitro ADME, human
[14] = human, cryopreserved primary human hepatocytes
[15] = levonorgestrel 5 μM, 60 min, vs ketoconazole inhibitor control
[16] = scaled from rhCYP data to adult female liver (Eq. 2)

With `CCC1(c2ccccc2)C(=O)NC(=O)NC1=O` [phenobarbital] the fold induction at 72 h, 1 mM (CYP1A2; [14]) was 2.7 ± 0.6, the “fold increase in CYP3A4 expression” value (CYP3A4 [1]; human, hepatocytes) was 4.8 ± 0.7 fold and the fold induction at 72 h, 1 mM (CYP2B6 [2]; [14]) was 2.6 ± 1.1.

For `CO[C@H]1/C=C/O[C@@]2(C)Oc3c(C)c(O)c4c(O)c(c(/C=N/N5CCN(C)CC5)c(O)c4c3C2=O)NC(=O)/C(C)=C\C=C\[C@H](C)[C@H](O)[C@@H](C)[C@@H](O)[C@@H](C)[C@H](OC(C)=O)[C@@H]1C` [rifampin], the “decrease of levonorgestrel exposure” value [3] is given as 58% and the fold induction at 72 h, 10 μM (CYP2B6 [2]; [14]) is given as 2 ± 0.5.

For `C[C@@H]1CCO[C@H]2Cn3cc(C(=O)NCc4ccc(F)cc4F)c(=O)c(O)c3C(=O)N12` [dolutegravir], the “induction of CYP1A2 expression (≥ two-fold above vehicle control)” value (CYP1A2; dolutegravir 0.00033–10 μM (unbound 0.142–4310 nM), 72 h) is given as “did not induce the expression of CYP1A2”, the “effect on expression of CYP2B6” value (CYP2B6 [4]) is given as “expression of neither CYP2B6 nor CYP3A4 was affected” and the fraction unbound at 4 h, 5 μM [5] is given as 0.43 ± 0.09. For the same compound, the fold induction (CYP3A4 [6]) was 2.3 ± 0.4, the “effect on expression of CYP3A4” value (CYP3A4 [1]) was “no effect” and the “unbound concentration range in human plasma” value [7] was 24.6 to 57.2 nM. For the same compound, the “effect on expression of CYP3A4” value (CYP3A4 [8]) was “expression of neither CYP2B6 nor CYP3A4 was affected”, the “effect on expression of CYP2B6” value (CYP2B6 [2]; dolutegravir at concentrations spanning unbound range reported in human plasma (24.6–57.2 nM), 72 h) was “no effect” and the fold induction at 72 h, 3.33 μM (CYP2B6 [2]; [14]) was 2.2 ± 0.3. The fold induction at 72 h, 10 μM (CYP2B6 [2]; [14]) was 2.3 ± 0.7.

For `CC(=O)[C@H]1CC[C@H]2[C@@H]3CCC4=CC(=O)CC[C@]4(C)[C@H]3CC[C@]12C` [progesterone], the Km (CYP2C9) is given as 46 µM, the Km (CYP3A4 [9]) is given as 80 µM and the Km (CYP2C19) is given as 37 µM.

For `C#C[C@]1(O)CC[C@H]2[C@@H]3CCC4=CC(=O)CC[C@@H]4[C@H]3CC[C@@]21CC` [levonorgestrel], the “levonorgestrel CLint.app. rhCYP3A5” value (rhCYP3A5; [15]) was 0.178 ± 0.027 µL/min/pmol, the “TCLH, CYP3A5” value (rhCYP3A5; [16]) was 9.4 ± 1.4 L/h and the “levonorgestrel CLint.app. mediated by rhCYP3A4” value (rhCYP3A4; [15]) was 0.182 ± 0.036 µL/min/pmol. For the same compound, the “total intrinsic clearance by a single CYP in the liver as a whole (TCLH), CYP3A4” value (rhCYP3A4; [16]) was 52.5 ± 10.4 L/h, the “plasma concentration of levonorgestrel” value ([10]; 1 month after insertion) was 1.39 nM and 435 pg/mL and the “plasma concentration of levonorgestrel” value ([10]; 3 years after insertion) was 0.90 nM and 280 pg/mL. The “bound to human plasma” value [11] was 97%, the “fraction unbound in plasma (fu)” value ([11]; set from 97% binding) was 3% and the “levonorgestrel CLint.app. rhCYP1A2” value (rhCYP1A2; levonorgestrel 5 μM, 60 min, vs α-naphthoflavone inhibitor control) was 0.028 ± 0.012 µL/min/pmol. For the same compound, the “TCLH, CYP1A2” value (rhCYP1A2; [16]) was 3.4 ± 1.5 L/h, the “levonorgestrel CLint.app. rhCYP2C9” value (rhCYP2C9; levonorgestrel 5 μM, 60 min, vs sulfaphenazole inhibitor control) was 0.062 ± 0.010 µL/min/pmol and the “TCLH, CYP2C9” value (rhCYP2C9; [16]) was 11.6 ± 1.9 L/h. For the same compound, the hepatocyte CLint at 1 nM [12] was 22.4 ± 5 µL/min/1e6 cells, the oral bioavailability [13] was “high bioavailability” and the “levonorgestrel CLint.app. rhCYP2B6” value (rhCYP2B6; levonorgestrel 5 μM, 60 min, vs sertraline inhibitor control) was 0.052 ± 0.004 µL/min/pmol. For the same compound, the “TCLH, CYP2B6” value (rhCYP2B6; [16]) was 2.6 ± 0.2 L/h, the “levonorgestrel CLint.app. rhCYP2C19” value (rhCYP2C19; levonorgestrel 5 μM, 60 min, vs (+)-N-3-benzylnirvanol inhibitor control) was 0.046 ± 0.005 µL/min/pmol and the “TCLH, CYP2C19” value (rhCYP2C19; [16]) was 1.6 ± 0.2 L/h. The “total systemic plasma clearance” value (hepatic CYPs; from CLapp, fu 3% (Eq. 4)) was 2.38 ± 0.46 L/h and the “total apparent clearance (CLapp) by the hepatic CYPs measured” value (hepatic CYPs; sum of TCLH of six CYPs (Eq. 3)) was 80.97 ± 15.53 L/h.
